According to US6552072B2, “Use of metal complexes to treat gastrointestinal infections” (Pfylori Limited, priority 1996, dated 2003):

System: H. pylori
Experiment: In vitro minimum inhibitor concentrations (MICs) of metal-ligand complexes against H. pylori
Format: cell-based
Conditions: Example 1
From the text: In Vitro Minimum Inhibitor Concentrations (MICs) Using Metal-ligand Complexes
Study of MICs of Other Metal-ligands Against H. pylori

SMILES	MIC (Helicobacter pylori) [µg/mL]	MIC against H. pylori
O=C(O)CC(O)(CC(=O)O)C(=O)O [Citrate]	> 0.064	–
O=C([O-])CC(O)(CC(=O)[O-])C(=O)[O-].O=C([O-])CC(O)(CC(=O)[O-])C(=O)[O-].[Zn+2].[Zn+2].[Zn+2] [Zinc Citrate, Zinc citrate]	–	8 to 64 µg/L
[O-][n+]1ccccc1[S-].[O-][n+]1ccccc1[S-].[Zn+2] [Zinc Salt]	–	>>64 μg/l
